# Test results as given in US10596127B2, “Composition for reducing the frequency of urination, method of making and use thereof” (WELLESLEY PHARMACEUTICALS, LLC, priority 2013, dated 2020).
# Tests used:
# [1] = tested on: IL-6 secretion by normal human bladder smooth muscle cells; test: IL-6 ELISA of normal human bladder smooth muscle cell supernatants; type: cell-based; conditions: no analgesic
# Description: (§1) Culture supernatants were subjected to cytokine-specific ELISA to determine IL-1β, IL-6 and TNF-α responses in cultures of macrophages treated with analgesic, LPS alone or a combination of LPS and analgesic. The assays were performed on Nunc MaxiSorp Immunoplates (Nunc) coated overnight with 100 μl of anti-mouse IL-6, TNF-α mAbs (BD Biosciences) or IL-1β mAb (R&D Systems) in 0.1 M sodium bicarbonate buffer (pH 9.5). After two washes with PBS (200 μl per well), 200 μl of PBS 3% BSA were added in each well (blocking) and the plates incubated for 2 hours at room temperature. Plates were washed again two times by addition of 200 μl per well, 100 μl of cytokine standards and serial dilutions of culture supernatants were added in duplicate and the plates were incubated overnight at 4° C. Finally, the plates were washed twice and incubated with 100 μl of secondary biotinylated anti-mouse IL-6, TNFα mAbs (BD Biosciences) or IL-1β (R&D Systems) followed by peroxidase-labelled goat anti-biotin mAb (Vector Laboratories). The colorimetric reaction was developed by the addition of 2,2′-azino-bis(3)-ethylbenzylthiazoline-6-sulfonic acid (ABTS) substrate and H2O2 (Sigma) and the absorbance measured at 415 nm with a Victor® V multilabel plate reader (PerkinElmer).
# (§2) Normal human bladder smooth muscle cells were isolated by enzymatic digestion from macroscopically normal pieces of human bladder. Cells were expended in vitro by culture at 37° C. in a 5% CO2 atmosphere in RPMI 1640 supplemented with 10% fetal bovine serum, 15 mM HEPES, 2 mM L-glutamine, 100 U/ml penicillin, and […] of streptomycin and passage once a week by treatment with trypsin to detach cells followed by reseeding in a new culture flask. The first week of culture, the culture medium was supplemented with 0.5 ng/ml epidermal growth factor, 2 ng/ml fibroblast growth factor, and 5 μg/ml insulin.
# (§3) Bladder smooth muscle cells trypsinized and seeded in microculture plates at a cell density of 3×10^4 cells per well in 100 μl were treated with analgesic solutions (50 μl/well) either alone or together carbachol (10-Molar, 50 μl/well), as an example of non-inflammatory stimuli, or lipopolysaccharide (LPS) of Salmonella typhimurium (1 μg/ml, 50 μl/well), as an example of […] stimuli. When no other effectors were added to the cells, 50 μl of RPMI 1640 without fetal bovine serum were added to the wells to adjust the final volume to 200 μl.
# (§4) After 24 hours of culture, 150 μl of culture supernatants were collected, spun down for 2 min at 8,000 rpm at 4° C. to remove cells and debris and stored at −70° C. for analysis of Prostaglandin E2 (PGE2) responses by ELISA. Cells were fixed, permeabilized and blocked for detection of COX2 using a fluorogenic substrate. In selected experiment cells were stimulated 12 hours in vitro for analysis of COX2, PGE2 and cytokine responses.
# (§5) COX2 and PGE2 responses were analyzed as described in Example 3. Cytokine responses were analyzed as described in Example 2.
# [2] = tested on: COX2 expression by normal human bladder smooth muscle cells; test: Cell-based ELISA of total COX2 in normal human bladder smooth muscle cells
# Description: COX2 responses were analyzed by a Cell-Based ELISA using Human/mouse total COX2 immunoassay (R&D Systems), following the instructions of the manufacturer. Briefly, after cells fixation and permeabilization, a mouse anti-total COX2 and a rabbit anti-total GAPDH were added to the wells of the clear-bottom black 96-well cell culture microculture plates. After incubation and washes, an HRP-conjugated anti-mouse IgG and an AP-conjugated anti-rabbit IgG were added to the wells. Following another incubation and set of washes, the HRP- and AP-fluorogenic substrates were added. Finally, a Victor® V multilabel plate reader (PerkinElmer) was used to read the fluorescence emitted at 600 nm (COX2 fluorescence) and 450 nm (GAPDH fluorescence). Results are expressed as relative levels of total COX2 as determined by relative fluorescence unit (RFUs) and normalized to the housekeeping protein GAPDH.
# as §2
# (§6) […] When no other effectors were added to the cells, 50 μl of RPMI 1640 without fetal bovine serum were added to the wells to adjust the final volume to 200 μl.
# as §4, §5
# [3] = tested on: IL-6 secretion by normal human bladder smooth muscle cells; test: IL-6 ELISA of normal human bladder smooth muscle cell supernatants; type: cell-based; conditions: stimulus alone, no analgesic (Carbachol 10^−3 M; LPS 10 μg/ml); unstimulated <5
# [4] = tested on: PGE2 secretion by normal human bladder smooth muscle cells; test: PGE2 ELISA of normal human bladder smooth muscle cell supernatants; type: cell-based
# Description: Prostaglandin E2 responses were analyzed by a sequential competitive ELISA (R&D Systems). More specifically, culture supernatants or PGE2 standards were added to the wells of a 96-well polystyrene microplate coated with a goat anti-mouse polyclonal antibody. After one hour incubation on a microplate shaker, an HRP-conjugated PGE2 was added and plates incubated for an additional two hours at room temperature. The plates were then washed and HRP substrate solution added to each well. The color was allowed to develop for 30 min and the reaction stopped by addition sulfuric acid before reading the plate at 450 nm with wavelength correction at 570 nm. Results are expressed as mean pg/ml of PGE2.
# as §2, §6, §4, §5
# [5] = tested on: TNFα secretion by normal human bladder smooth muscle cells; test: TNFα ELISA of normal human bladder smooth muscle cell supernatants; type: cell-based; conditions: no analgesic
# Description: as §1, §2, §3, §4, §5
# [6] = tested on: expression of co-stimulatory molecules by Raw 264 macrophage cells; test: Flow cytometry of co-stimulatory molecules CD40 and CD80 on macrophages treated with analgesic, with or without LPS; type: cell-based, Murine; conditions: LPS 5 ng/ml alone, no analgesic; negative control 20.6
# Description: Murine RAW264.7 or J774 macrophage cells (obtained from ATCC) were used in this study. Cells were maintained in a culture medium containing RPMI 1640 supplemented with 10% fetal bovine serum (FBS), 15 mM HEPES, 2 mM L-glutamine, 100 U/ml penicillin, and 100 μg/ml of streptomycin. Cells were cultured at 37° C. in a 5% CO2 atmosphere and split (passages) once a week.
# RAW264.7 macrophage cells were seeded in 96-well plates at a cell density of 1.5×10^5 cells per well in 100 μl of the culture medium. […] Briefly, the analgesics were dissolved in FBS-free culture medium (i.e., RPMI 1640 supplemented with 15 mM HEPES, 2 mM L-glutamine, 100 U/ml penicillin, and 100 μg/ml of streptomycin), and diluted to desired concentrations by serial dilution with the same medium. For cells treated with analgesic in the absence of LPS, 50 μl of analgesic solution and 50 μl of FBS-free culture medium were added to each well. For cells treated with analgesic in the presence of LPS, 50 μl of analgesic solution and 50 μl of LPS (from Salmonella typhimurium) in FBS-free culture medium were added to each well. All conditions were tested in duplicates.
# After 24 or 48 hours of culture, 150 μl of culture supernatants were collected, spun down for 2 min at 8,000 rpm at 4° C. to remove cells and debris and stored at −70° C. for analysis of cytokine responses by ELISA. The cells were collected and washed by centrifugation (5 min at 1,500 rpm at 4° C.) in 500 μl of Phosphate buffer (PBS). Half of the cells were then snap frozen in liquid nitrogen and stored at −70° C. The remaining cells were stained with fluorescent monoclonal antibodies and analyzed by flow cytometry.
# For flow cytometry analysis, macrophages were diluted in 100 μl of FACS buffer (phosphate buffered saline (PBS) with 2% bovine serum albumin (BSA) and 0.01% NaN3) and stained 30 min at 4° C. by addition of FITC-conjugated anti-CD40, PE-conjugated anti-CD80, PE-conjugated anti-CD86 antibody, anti MHC class II (I-A^d) PE (BD Bioscience). Cells were then washed by centrifugation (5 min at 1,500 rpm at 4° C.) in 300 μl of FACS buffer. After a second wash, cells were re-suspended in 200 μl of FACS buffer and the percentage of cells expressing a given marker (single positive), or a combination of markers (double positive) were analyzed with the aid of an Accuri C6 flow cytometer (BD Biosciences).
# [7] = tested on: TNFα secretion by normal human bladder smooth muscle cells; test: TNFα ELISA of normal human bladder smooth muscle cell supernatants; type: cell-based; conditions: stimulus alone, no analgesic (Carbachol 10^−3 M; LPS 10 μg/ml); unstimulated <5
# [8] = stimulus alone, no analgesic (Carbachol 10^−3 M; LPS 10 μg/ml), unstimulated <20.5
substance,measurement,setting,value
lipopolysaccharide [LPS],IL-6 responses to stimulus alone,[1],massive induction
same,COX2 responses to stimulus alone,[2]; no analgesic,higher levels of COX2 responses
same,Total COX2 levels (Normalized RFUs) subject 2,"[2]; stimulus alone, no analgesic (Carbachol 10^−3 M; LPS 10 μg/ml), unstimulated 199",633 Normalized RFUs
same,Total COX2 levels (Normalized RFUs) subject 1,"[2]; stimulus alone, no analgesic (Carbachol 10^−3 M; LPS 10 μg/ml), unstimulated 230",672 Normalized RFUs
same,IL-6 (pg/ml) Subject 1,[3],4838 pg/mL
same,IL-6 (pg/ml) Subject 2,[3],4383 pg/mL
same,PGE2 production in response to stimulus alone,[4]; no analgesic,induced production of PGE2
same,PGE2 levels (pg/ml) Subject 1,[4]; [8],1125 pg/mL
same,PGE2 levels (pg/ml) Subject 2,[4]; [8],998 pg/mL
same,TNFα responses to stimulus alone,[5],massive induction
same,% Positive CD40+CD80+,[6],77.8%
same,TNFα (pg/ml) Subject 1,[7],5725 pg/mL
same,TNFα (pg/ml) Subject 2,[7],4107 pg/mL
